The results in this text go back to PMC4199632, “Exploring the Anti-Cancer Activity of Novel Thiosemicarbazones Generated through the Combination of Retro-Fragments: Dissection of Critical Structure-Activity Relationships” (PLoS ONE, 2014).

Molecules are shown by their SMILES.

The test system of one assay is HCT116 p53+/+, HCT116 p53−/−, Raji, HeLa, SK-N-MC and NHDF cells. Put plainly: Proliferation assay, ranges stated over several cell-types. Format: cell-based, human. The settings on record: Homo sapiens, HCT-116; range over HCT116 p53+/+ and p53−/− cells and over the compounds named; read-out: IC50 range in HCT116 cells. The procedure:
(§1) The human cancer cell types (neuroepithelioma (SK-N-MC), colon cancer (HCT116 with wild-type p53 (p53^+/+)), Burkitt's lymphoma (Raji) and cervical carcinoma (HeLa)) cells and normal human dermal fibroblasts (NHDF) were obtained from the American Type Culture Collection (ATCC, Manassas, VA, USA). HCT116 null p53 (p53^−/−) cells were obtained from the Maria Sklodowska-Curie Memorial Cancer Center and Institute of Oncology, Poland.
(§2) The SK-N-MC cells were cultured in minimum essential medium (MEM; Life Technologies, Grand Island, New York, USA) containing 10% (v/v) fetal bovine serum (FBS; Life Technologies), 1 mM sodium pyruvate (Life Technologies), 1% (v/v) non-essential amino acids (Life Technologies), 2 mM L-glutamine (Life Technologies), 100 U/mL penicillin (Life Technologies), 100 µg/mL streptomycin (Life Technologies) and 0.28 µg/mL fungizone (Bristol Myers Squibb Pharmaceuticals, Montreal, Canada). The HCT116 and NHDF cells were grown in Dulbecco's modified Eagle's medium (DMEM; Sigma-Aldrich) supplemented with 12% (v/v) heat-inactivated FBS (HCT116; Life Technologies) or 15% (v/v) FBS (NHDF; Life Technologies), 100 µg/mL of gentamicin (Polfa Warszawa S.A., Warsaw, Poland), 100 µg/mL of streptomycin (Polfa) and 100 U/mL of penicillin (Polfa). The Raji and HeLa cells were cultured in Roswell Park Memorial Institute medium (RPMI-1640; Sigma-Aldrich) with the addition of 10% (v/v) heat-inactivated FBS (Life Technologies) and the supplements described for SK-N-MC cells above. All cell lines were cultured under standard conditions at 37°C in a humidified atmosphere at 5% CO2 and were subcultured every 3–4 days as required.
(§3) The cells were seeded in 96-well plates (SK-N-MC: 1.5×10^4 cells/well; HeLa: 5.0×10^3 cells/well; Raji: 3.0×10^3 cells/well; HCT116: 3.5×10^3 cells/well; NHDF: 3.0×10^3 cells/well) 24 h prior to the addition of the novel compounds. The assays were performed using a 72 h (SK-N-MC, Raji, HeLa) or 96 h (HCT 116, NHDF) incubation period with the agents at 37°C. […] Additionally, DFO and Dp44mT were included as positive controls in all experiments as their activity is well characterized, [42], [50].
(§4) Chelator stock solutions were prepared in DMSO and diluted in media so that the final [DMSO] <0.05%. The results were expressed as a percentage of the control and the resulting IC50 values were calculated using GraphPad Prism 5 (GraphPad Software, Inc., La Jolla, CA, USA). The IC50 was defined as the concentration necessary to reduce the absorbance to 50% of the untreated control. Each individual compound was tested in triplicate in a single experiment, with each experiment being repeated three times. After incubation of HCT 116 and NHDF cells with the tested compounds, 20 µL of the CellTiter 96 Aqueous One Solution - MTS (Promega, Madison, WI, USA) solution was added to each well (with 100 µL of DMEM without phenol red) and incubated for 1 h/37°C. The optical density of the samples was analyzed at 490 nm.
(§5) MTT (3-[4,5-dimethylthiazol-2-yl]-2,5-diphenyltetrazolium bromide) was used to evaluate the anti-proliferative effects of the chelators in SK-N-MC and Raji cells. Following incubation with the investigated compounds, 10 µL of MTT (5 mg/mL in PBS; Sigma-Aldrich) was added to each well. After a 2 h (SK-N-MC) or 4 h (Raji) incubation, the plates were centrifuged, and the cells were lysed with 100 µL of 10% SDS-50% isobutanol in 0.01 M HCl (SK-N-MC) or DMSO (Raji). The absorbance was measured at 570 nm. The anti-proliferative effects of these novel agents on HeLa cells were estimated using crystal violet staining (0.5% crystal violet solution for 10 min). Finally, the wells were rinsed with water and the cells were lysed with 2% SDS. The optical density of the samples was analyzed at 595 nm.
One may read the IC50 as the concentration needed to halve the response being measured. For the compound `Oc1cccc2ccc(/C=N/NC(=S)N3CCOCC3)nc12` [3c], the IC50 was 2 to 17 nM.
For `S=C(NN=C(c1ccccn1)c1ccccn1)N1CCN(c2ccccn2)CC1` [1d, Z-N′-(di(pyridin-2-yl)methylene)-4-(pyridin-2-yl)piperazine-1-carbothiohydrazide], the IC50 was in the range of 2 to 17 nM.
The same measure, in the same setting: the same measure for `S=C(NN=C(c1ccccn1)c1ccccn1)N1CCN(c2ccccc2)CC1` [1b]: 0.8 to 90 nM.

The assay is the same for the next values; noted with them: range over HCT116 p53+/+ and p53−/− and over the compounds named.
Consider `Oc1cccc2ccc(/C=N/NC(=S)N3CCOCC3)nc12` [3c], for which the “Therapeutic index, NHDF relative to HCT116 cells” value is 18–2650.
`S=C(NN=C(c1ccccn1)c1ccccn1)N1CCN(c2ccccn2)CC1` [1d, Z-N′-(di(pyridin-2-yl)methylene)-4-(pyridin-2-yl)piperazine-1-carbothiohydrazide]: the “Therapeutic index, NHDF relative to HCT116 cells” value is reported as 18–2650.
Still for that read-out and setting: the same measure for `S=C(NN=C(c1ccccn1)c1ccccn1)N1CCN(c2ccccc2)CC1` [1b]: 2.

The next assay deals with HeLa cervical carcinoma cells. Put plainly: Proliferation assay (crystal violet, 72 h). Format: cell-based. Particulars: Homo sapiens, 72 h incubation, mean ±SD (3 experiments). The procedure:
as §1, §2, §3, §4, §5
Regarding `Oc1cccc2ccc(/C=N/NC(=S)N3CCOCC3)nc12` [3c], half-maximal inhibition (IC50) was put at 180 ± 70 nM.
Same read-out and setting: with `S=C(NN=C(c1ccccn1)c1ccccn1)N1CCN(c2ccccn2)CC1` [1d, Z-N′-(di(pyridin-2-yl)methylene)-4-(pyridin-2-yl)piperazine-1-carbothiohydrazide] the figure was 30 ± 20 nM; with `S=C(NN=C(c1ccccn1)c1ccccn1)N1CCN(c2ccccc2)CC1` [1b], 570 ± 160 nM.

The test system of another assay is HCT116 p53+/+ colon cancer cells. Put plainly: Proliferation assay (MTS, 96 h). Format: cell-based, human. Particulars: Homo sapiens, HCT-116; 96 h incubation, MTS; mean ±SD (3 experiments). The procedure:
as §1, §2, §3, §4
Take `Oc1cccc2ccc(/C=N/NC(=S)N3CCOCC3)nc12` [3c]: inhibition was half-maximal at 4 ± 2 nM (IC50).
Still for that read-out and setting: with `S=C(NN=C(c1ccccn1)c1ccccn1)N1CCN(c2ccccn2)CC1` [1d, Z-N′-(di(pyridin-2-yl)methylene)-4-(pyridin-2-yl)piperazine-1-carbothiohydrazide] the figure was 2 nM; with `S=C(NN=C(c1ccccn1)c1ccccn1)N1CCN(c2ccccc2)CC1` [1b], 0.8 ± 0.1 nM.

Still in this assay, the particulars now being: NHDF cell IC50 divided by HCT116 p53+/+ IC50.
In the case of `Oc1cccc2ccc(/C=N/NC(=S)N3CCOCC3)nc12` [3c], the “Therapeutic index NHDF vs. HCT116 p53+/+” value is 2650.
Still for that read-out and setting: with `S=C(NN=C(c1ccccn1)c1ccccn1)N1CCN(c2ccccn2)CC1` [1d, Z-N′-(di(pyridin-2-yl)methylene)-4-(pyridin-2-yl)piperazine-1-carbothiohydrazide] the figure was 80; with `S=C(NN=C(c1ccccn1)c1ccccn1)N1CCN(c2ccccc2)CC1` [1b], 2.

The subject of the next assay is HCT116 p53−/− colon cancer cells. The experiment in a line: Proliferation assay (MTS, 96 h). The assay is classed as cell-based, human. The settings on record: Homo sapiens, HCT-116, 96 h, 96 h incubation, MTS; mean ±SD (3 experiments). The procedure:
as §1, §2, §3, §4
With `Oc1cccc2ccc(/C=N/NC(=S)N3CCOCC3)nc12` [3c], half-maximal inhibition (IC50) required 17 ± 6 nM.
`S=C(NN=C(c1ccccn1)c1ccccn1)N1CCN(c2ccccn2)CC1` [1d, Z-N′-(di(pyridin-2-yl)methylene)-4-(pyridin-2-yl)piperazine-1-carbothiohydrazide] showed an IC50 of 9 ± 1 nM.
Same read-out and setting: the same measure for `S=C(NN=C(c1ccccn1)c1ccccn1)N1CCN(c2ccccc2)CC1` [1b]: 0.8 ± 0.1 nM.

The assay is the same for the next values; noted with them: NHDF cell IC50 divided by HCT116 p53−/− IC50.
With `Oc1cccc2ccc(/C=N/NC(=S)N3CCOCC3)nc12` [3c], the “Therapeutic index NHDF vs. HCT116 p53−/−” value turned out to be 624.
On to `S=C(NN=C(c1ccccn1)c1ccccn1)N1CCN(c2ccccn2)CC1` [1d, Z-N′-(di(pyridin-2-yl)methylene)-4-(pyridin-2-yl)piperazine-1-carbothiohydrazide], for which the “Therapeutic index NHDF vs. HCT116 p53−/−” value came to 18.
Same read-out and setting: with `S=C(NN=C(c1ccccn1)c1ccccn1)N1CCN(c2ccccc2)CC1` [1b] the figure was 2.

The test system of another assay is normal human dermal fibroblast (NHDF) cells. The experiment in a line: Proliferation assay (MTS, 96 h), normal mortal cells. The settings on record: 96 h incubation, mean ±SD (3 experiments). The assay is classed as cell-based. The procedure: as §1, §2, §3, §4
Compound `S=C(NN=C(c1ccccn1)c1ccccn1)N1CCN(c2ccccn2)CC1` [1d, Z-N′-(di(pyridin-2-yl)methylene)-4-(pyridin-2-yl)piperazine-1-carbothiohydrazide] came in with a half-inhibitory concentration (IC50) of 160 ± 40 nM.

The same assay, now with this note: Homo sapiens, NHDF, 96 h, 96 h incubation, mean ±SD (3 experiments).
Compound `S=C(NN=C(c1ccccn1)c1ccccn1)N1CCN(c2ccccn2)CC1` [1d, Z-N′-(di(pyridin-2-yl)methylene)-4-(pyridin-2-yl)piperazine-1-carbothiohydrazide] gave a half-maximal inhibitory concentration (IC50) of 160 to 10600 nM.
The compound `S=C(NN=C(c1ccccn1)c1ccccn1)N1CCN(c2ccccc2)CC1` [1b] yielded a 50% inhibitory concentration (IC50) of 1.7 ± 0.7 nM.

Tested on in another assay: not listed separately
The experiment in a line: Ascorbate oxidation assay (iron complexes). The settings on record: iron complex, IBE 3; FeIII 10 µM, ascorbate 100 µM. Format: biochemical. The procedure:
The ability of the iron complexes of the novel ligands to mediate the oxidation of the physiological substrate, ascorbate, was examined using established methods, [18], [22], [52], [53]. Ascorbic acid (100 µM) was prepared immediately prior to each experiment and was incubated in the presence of Fe^III (10 µM; as FeCl3), the chelator (1–60 µM) and a 50-fold molar excess of citrate (500 µM). The absorbance at 265 nm was measured after 10 and 40 min and the difference in absorbance at these time points was calculated. The results of these experiments were expressed as iron-binding equivalents (IBE) due to the different denticity of the chelators examined. The chelators, Dp44mT, DFO and ethylenediaminetetraacetic acid (EDTA) were used as controls as the ability of their iron complexes to oxidize ascorbate has been extensively characterized, [15], [52], [53].
The ability of the iron complexes of the novel TSCs to catalyze the oxidation of the physiological substrate, ascorbate, was important to assess as redox cycling may play a critical role in their anti-proliferative activity, [15], [18], [52], [53]. Thus, the oxidation of ascorbate mediated by the iron complexes of series 1–6 were examined in comparison to the iron complexes of the control compounds, DFO, EDTA and Dp44mT, as the ability of the latter to oxidize ascorbate is well characterized, [15], [52], [53], [68]. The results were expressed as a percentage of the control (no chelator) at iron-binding equivalents (IBEs) of 0.1 (excess “free” iron), 1 (iron-chelator complexes with a fully filled coordination sphere), or 3 (excess free chelator), due to the different denticity of the chelators examined (Fig. 10).
Figure 10 Effect of the iron complexes of (A) series 1, (B) series 2, (C) series 3, (D) series 4, (E) series 5 and (F) series 6 chelators, relative to DFO, Dp44mT and EDTA, on ascorbate oxidation. Chelators at iron-binding equivalent (IBE) ratios of 0.1, 1, and 3 were incubated in the presence of Fe^III (10 µM) and ascorbate (100 µM). The UV-Vis absorbance at 265 nm was recorded after 10 and 40 min, and the difference between the time points was calculated. Results are mean ±SD (3 experiments).
Consider `S=C(NN=C(c1ccccn1)c1ccccn1)N1CCN(c2ccccn2)CC1` [1d, Z-N′-(di(pyridin-2-yl)methylene)-4-(pyridin-2-yl)piperazine-1-carbothiohydrazide], for which the “Ascorbate oxidation (% of the control)” value was 200–265%.
On the same count and under the same terms, with `S=C(NN=C(c1ccccn1)c1ccccn1)N1CCN(c2ccccc2)CC1` [1b] the figure was 200–265%.

The next assay relates to Raji Burkitt's lymphoma cells. Put plainly: Proliferation assay (MTT, 72 h). Particulars: Homo sapiens, 72 h incubation, mean ±SD (3 experiments). Format: cell-based. The procedure: as §1, §2, §3, §4, §5
`Oc1cccc2ccc(/C=N/NC(=S)N3CCOCC3)nc12` [3c] showed a half-maximal inhibitory concentration (IC50) of 20 ± 10 nM.
The same measure, in the same setting: with `S=C(NN=C(c1ccccn1)c1ccccn1)N1CCN(c2ccccn2)CC1` [1d, Z-N′-(di(pyridin-2-yl)methylene)-4-(pyridin-2-yl)piperazine-1-carbothiohydrazide] the figure was 1.3 ± 0.1 nM; with `S=C(NN=C(c1ccccn1)c1ccccn1)N1CCN(c2ccccc2)CC1` [1b], 0.3 ± 0.03 nM.

The subject of a further assay is SK-N-MC neuroepithelioma cells. Put plainly: Proliferation assay (MTT, 72 h). Format: cell-based. Particulars: Homo sapiens, 72 h incubation, mean ±SD (3 experiments). The procedure: as §1, §2, §3, §4, §5
With `Oc1cccc2ccc(/C=N/NC(=S)N3CCOCC3)nc12` [3c], the 50% inhibitory concentration (IC50) was over 6250 nM.
The compound `S=C(NN=C(c1ccccn1)c1ccccn1)N1CCN(c2ccccn2)CC1` [1d, Z-N′-(di(pyridin-2-yl)methylene)-4-(pyridin-2-yl)piperazine-1-carbothiohydrazide] returned an IC50 of 20 ± 10 nM.
The same measure, in the same setting: the same measure for `S=C(NN=C(c1ccccn1)c1ccccn1)N1CCN(c2ccccc2)CC1` [1b]: 50 ± 10 nM.
